Assay [1] deals with T1, ligand binding domain of the glucocorticoid receptor (HEK293 cells stably expressing) (Homo sapiens, UniProt P04150).
T1 sequence (P04150 524-758 limits assumed): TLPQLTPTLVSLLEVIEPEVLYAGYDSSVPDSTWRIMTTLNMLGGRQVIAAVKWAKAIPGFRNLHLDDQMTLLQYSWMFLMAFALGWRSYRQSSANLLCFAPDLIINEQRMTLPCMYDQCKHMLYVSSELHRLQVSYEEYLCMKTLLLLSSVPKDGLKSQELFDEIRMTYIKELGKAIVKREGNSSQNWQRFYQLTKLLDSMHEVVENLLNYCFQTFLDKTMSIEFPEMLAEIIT
The assay can be described thus: GR antagonism assay (luciferase reporter). A general note: In a reporter assay the amount or activity of a reporter protein is the signal.
Protocol: HEK293 cells stably expressing the ligand binding domain of the glucocorticoid receptor were seeded at a density of 40000 cells/well in the assay plate. The assay plate was then incubated at 37° C., 5% CO2 for 30 minutes. Dexamethasone was added to the assay plate at 1.5 nM final concentration and the assay plate incubated at 37° C., 5% CO2 for 20 h. After the incubation period, Dual-glo luciferase reagent was added to the assay plate and mixed at room temperature for 20 minutes on an orbital shaker, before reading out on the En Vision plate reader. 50 μL of Stop & Glo reagent was added to assay plate, mixed at room temperature for 20 minutes, and read on the Envision plate reader.

The target of assay [2] is T2, full-length androgen receptor (HEK293 cells stably expressing) (Homo sapiens, UniProt P10275).
T2 sequence (P10275 1-920): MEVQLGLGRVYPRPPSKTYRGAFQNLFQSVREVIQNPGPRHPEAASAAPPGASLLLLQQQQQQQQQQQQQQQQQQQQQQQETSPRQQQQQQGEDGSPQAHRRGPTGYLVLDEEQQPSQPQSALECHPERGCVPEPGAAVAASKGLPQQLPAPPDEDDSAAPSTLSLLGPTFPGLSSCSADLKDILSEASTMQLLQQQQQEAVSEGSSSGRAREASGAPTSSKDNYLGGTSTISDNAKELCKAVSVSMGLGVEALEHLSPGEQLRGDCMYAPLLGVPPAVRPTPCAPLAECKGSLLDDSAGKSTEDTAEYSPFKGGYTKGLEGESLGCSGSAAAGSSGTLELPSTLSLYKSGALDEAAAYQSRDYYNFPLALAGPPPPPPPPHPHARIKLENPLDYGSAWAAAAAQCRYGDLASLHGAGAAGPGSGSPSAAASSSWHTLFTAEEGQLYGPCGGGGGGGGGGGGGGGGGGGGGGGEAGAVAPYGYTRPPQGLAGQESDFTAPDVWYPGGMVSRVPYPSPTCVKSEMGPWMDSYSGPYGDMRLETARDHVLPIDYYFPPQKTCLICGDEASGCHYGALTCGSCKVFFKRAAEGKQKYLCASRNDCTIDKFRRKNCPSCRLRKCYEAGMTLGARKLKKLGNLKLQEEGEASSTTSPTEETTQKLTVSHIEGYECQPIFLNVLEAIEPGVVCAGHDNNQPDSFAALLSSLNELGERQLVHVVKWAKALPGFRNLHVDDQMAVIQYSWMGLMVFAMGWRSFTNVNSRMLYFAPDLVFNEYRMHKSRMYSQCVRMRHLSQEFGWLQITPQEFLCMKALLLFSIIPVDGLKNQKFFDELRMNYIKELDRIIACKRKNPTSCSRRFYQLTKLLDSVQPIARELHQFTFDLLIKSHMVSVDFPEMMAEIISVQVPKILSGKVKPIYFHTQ
Nature of the assay: AR antagonism assay (luciferase reporter).

The next assay has as its system 22Rv1 cells. The assay can be described thus: Cell viability assay (CellTiterGlo). Conditions: Homo sapiens, 22Rv1, 144 h, read-out: 22RV1 (IC50, nM). For orientation: In ATP-based viability assays light output follows the ATP content of the culture.
Another assay concerns T47D cells. Nature of the assay: Cell viability assay (CellTiterGlo). It counts as cell-based. The conditions noted are these: Homo sapiens, 144 h.
In assay [3] the target is T3, Progesterone Receptor (PR)-LBD and coactivator peptide (Homo sapiens, UniProt P06401).
T3 sequence (P06401 679-913 limits assumed): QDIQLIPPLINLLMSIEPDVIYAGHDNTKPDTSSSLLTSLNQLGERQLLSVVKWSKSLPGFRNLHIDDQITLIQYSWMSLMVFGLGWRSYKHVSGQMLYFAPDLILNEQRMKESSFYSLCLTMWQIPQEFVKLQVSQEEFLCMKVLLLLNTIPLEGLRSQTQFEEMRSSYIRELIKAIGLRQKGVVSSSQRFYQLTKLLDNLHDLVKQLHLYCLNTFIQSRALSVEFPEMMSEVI
The assay can be described thus: PR coactivator antagonist assay. The conditions noted are these: 2.5 nM PR-LBD, 10 nM progesterone-induced fluorescence response.

Where [4] appears, read: 6 days incubation, CellTiterGlo, read-out: T47D (IC50).

The structures appear in SMILES notation. Counter-ions that a name gives are not always drawn. Like-named read-outs stand apart in the source and are kept apart here. Numbered stars: 1 amine (or outer) side, 2 acyl side, 3 side chain; on linkers, the order of the positions; unused ones are H or OH. Square brackets hold non-standard residues; d marks the D form. Peptide text beside a SMILES is read from it. * marks the point of attachment. X1 = CC(=O)O[C@]1(C(C)=O)CC[C@H]2[C@@H]3CCC4=CC(=O)CCC4=C3[C@@H](c3ccc(*)cc3)C[C@@]21C; Exatecan = CC[C@@]1(O)C(=O)OCc2c1cc1n(c2=O)Cc2c-1nc1cc(F)c(C)c3c1c2[C@@H](N*)CC3; NHCH2OCH2CO = O=C(COCN[*:1])[*:2]; Sar = CNCC(=O)O A value given as a limit tells only on which side of the number the result lay.

Take `CC[C@@]1(O)C(=O)OCc2c1cc1n(c2=O)Cc2cc3c(CN4CCN(C(=O)C5CCN(c6ccc(C(=O)N[C@H]7CC[C@H](Oc8ccc(C#N)c(Cl)c8C)CC7)nn6)CC5)CC4)c(OC(=O)N4C[C@H](C)N(C)C[C@H]4C)ccc3nc2-1` [Compound 30, (S)-10-((4-(1-(6-(((1r,4r)-4-(3-Chloro-4-cyano-2-methylphenoxy)cyclohexyl)carbamoyl)-pyridazin-3-yl)piperidine-4-carbonyl)piperazin-1-yl)methyl)-4-ethyl-4-hydroxy-3,14-dioxo-3,4,12,14-tetrahydro-1H-pyrano[3′,4′:6,7]indolizino[1,2-b]quinolin-9-yl (2R,5S)-2,4,5-trimethylpiperazine-1-carboxylate Formate]: the IC50 in assay [1] is greater than 1000 nM; in assay [2], greater than 1000 nM; with 22Rv1 cells, 101 to 1000 nM.
For `CC[C@@]1(O)C(=O)OCc2c1cc1n(c2=O)Cc2cc3c(CN(C)C)c(OC(=O)N4CCN(CC5CCN(c6ccc(C(=O)N[C@H]7CC[C@H](Oc8ccc(C#N)c(Cl)c8C)CC7)nn6)CC5)CC4)ccc3nc2-1` [Compound 31, (S)-10-((Dimethylamino)methyl)-4-ethyl-4-hydroxy-3,14-dioxo-3,4,12,14-tetrahydro-1H-pyrano[3′,4′:6,7]indolizino[1,2-b]quinolin-9-yl 4-((1-(6-(((1r,4r)-4-(3-chloro-4-cyano-2-methylphenoxy)cyclohexyl)carbamoyl)pyridazin-3-yl)piperidin-4-yl)methyl)piperazine-1-carboxylate Formate], the IC50 in assay [1] was greater than 1000 nM; in assay [2], greater than 1000 nM; in the assay with 22Rv1 cells, 101 to 1000 nM.
Turning to `CC[C@@]1(O)C(=O)OCc2c1cc1n(c2=O)Cc2c-1nc1cc(F)c(C)c3c1c2[C@@H](NC(=O)COCNC(=O)CNC(=O)[C@H](Cc1ccccc1)NC(=O)CNC(=O)CN(C)c1ccc([C@H]2C[C@@]4(C)[C@@H](CC[C@]4(OC(C)=O)C(C)=O)[C@@H]4CCC5=CC(=O)CCC5=C42)cc1)CC3` [Compound 34, (8S,11R,13S,14S,17R)-17-Acetyl-11-(4-(((S)-10-benzyl-1-(((1S,9S)-9-ethyl-5-fluoro-9-hydroxy-4-methyl-10,13-dioxo-2,3,9,10,13,15-hexahydro-1H,12H-benzo[de]pyrano[3′,4′:6,7]indolizino[1,2-b]quinolin-1-yl)amino)-1,6,9, 12,15-pentaoxo-3-oxa-5,8,11,14-tetraazahexadecan-16-yl)(methyl)amino)phenyl)-13-methyl-3-oxo-2,3,6,7,8,11,12,13,14,15,16,17-dodecahydro-1H-cyclopenta[a]phenanthren-17-yl Acetate] (X1-[Sar]GFG[NHCH2OCH2CO]-Exatecan), the IC50 is 101 to 1000 nM in assay [1]; 101 to 1000 nM with T47D cells (read-out: T47D (IC50, nM)); greater than 1000 nM in assay [2]; 101 to 1000 nM in the assay with 22Rv1 cells. Further, the PR antagonism entry in assay [3] is reported as “a (IC50 =< 10 nM)”.
On to `CC[C@@]1(O)C(=O)OCc2c1cc1n(c2=O)Cc2cc3c(CN4CCN(CCCCCCN(C)c5ccc([C@H]6C[C@@]7(C)[C@@H](CC[C@]7(OC(C)=O)C(C)=O)[C@@H]7CCC8=CC(=O)CCC8=C76)cc5)CC4)c(O)ccc3nc2-1` [Compound 36, (8S,11R,13S,14S,17R)-17-acetyl-11-(4-((6-(4-(((S)-4-ethyl-4,9-dihydroxy-3,14-dioxo-3,4,12,14-tetrahydro-1H-pyrano[3′,4′:6,7]indolizino[1,2-b]quinolin-10-yl)methyl)piperazin-1-yl)hexyl)(methyl)amino)phenyl)-13-methyl-3-oxo-2,3,6,7,8,11,12,13,14,15,16,17-dodecahydro-1H-cyclopenta[a]phenanthren-17-yl acetate], for which the results for the IC50 (in assay [1]; with T47D cells (setting [4]); in assay [2]) were less than 10 nM, 10 to 100 nM and 101 to 1000 nM, respectively.
For `CC[C@@]1(O)C(=O)OCc2c1cc1n(c2=O)Cc2c-1nc1cc(F)c(C)c3c1c2[C@@H](N(C)C(=O)COCC1CCN(CCCCCCCN(C)c2ccc([C@H]4C[C@@]5(C)[C@@H](CC[C@]5(OC(C)=O)C(C)=O)[C@@H]5CCC6=CC(=O)CCC6=C54)cc2)CC1)CC3` [Compound 55, (8S,11R,13S,14S,17R)-17-acetyl-11-(4-((7-(4-((2-(((1S,9S)-9-ethyl-5-fluoro-9-hydroxy-4-methyl-10,13-dioxo-2,3,9,10,13,15-hexahydro-1H,12H-benzo[de]pyrano[3′,4′:6,7]indolizino[1,2-b]quinolin-1-yl)(methyl)amino)-2-oxoethoxy)methyl)piperidin-1-yl)heptyl)(methyl)amino)phenyl)-13-methyl-3-oxo-2,3,6,7,8,11,12,13,14,15,16,17-dodecahydro-1H-cyclopenta[a]phenanthren-17-yl acetate], the IC50 was 10 to 100 nM in assay [1], 101 to 1000 nM in the assay on T47D cells (setting [4]) and 101 to 1000 nM in assay [2].
As to `CC[C@@]1(O)C(=O)OCc2c1cc1n(c2=O)Cc2cc3c(CN(C)C)c(OCC4CCN(C(=O)CN(C)c5ccc([C@H]6C[C@@]7(C)[C@@H](CC[C@]7(OC(C)=O)C(C)=O)[C@@H]7CCC8=CC(=O)CCC8=C76)cc5)CC4)ccc3nc2-1` [Compound No. 19, (8S,11R,13S,14S,17R)-17-Acetyl-11-(4-((2-(4-((((S)-10-((dimethylamino)methyl)-4-ethyl-4-hydroxy-3,14-dioxo-3,4,12,14-tetrahydro-1H-pyrano[3′,4′:6,7]indolizino[1,2-b]quinolin-9-yl)oxy)methyl)-piperidin-1-yl)-2-oxoethyl)(methyl)amino)phenyl)-13-methyl-3-oxo-2,3,6,7,8,11,12,13,14,15,16,17-dodeca-hydro-1H-cyclopenta[a]phenanthren-17-yl acetate], the IC50 is 10 to 100 nM in assay [1], 101 to 1000 nM with T47D cells (setting [4]) and greater than 1000 nM in assay [2]. In addition, the PR antagonism entry in assay [3] was “a (IC50 =< 10 nM)”.
Consider `CC[C@@]1(O)C(=O)OCc2c1cc1n(c2=O)Cc2c-1nc1cc(F)c(C)c3c1c2[C@@H](NC(=O)COCCCCCCN(C)c1ccc([C@H]2C[C@@]4(C)[C@@H](CC[C@]4(OC(C)=O)C(C)=O)[C@@H]4CCC5=CC(=O)CCC5=C42)cc1)CC3` [Compound No. 47, (8S,11R,13S,14S,17R)-17-acetyl-11-(4-((6-(2-(((1S,9S)-9-ethyl-5-fluoro-9-hydroxy-4-methyl-10,13-dioxo-2,3,9,10,13,15-hexahydro-1H,12H-benzo[de]pyrano [3′,4′:6,7]indolizino[1,2-b]quinolin-1-yl)amino)-2-oxoethoxy)hexyl)(methyl)amino)phenyl)-13-methyl-3-oxo-2,3,6,7,8,11,12,13,14,15,16,17-dodecahydro-1H-cyclopenta[a]phenanthren-17-yl acetate], for which the IC50 in assay [1] was 101 to 1000 nM; with T47D cells (setting [4]), 10 to 100 nM; in assay [2] it was 10 to 100 nM.
For `CC[C@@]1(O)C(=O)OCc2c1cc1n(c2=O)Cc2c-1nc1cc(F)c(C)c3c1c2[C@@H](NCC1CCN(CC2CCN(C(=O)CN(C)c4ccc([C@H]5C[C@@]6(C)[C@@H](CC[C@]6(OC(C)=O)C(C)=O)[C@@H]6CCC7=CC(=O)CCC7=C65)cc4)CC2)CC1)CC3` [Compound No. 51, (8S,11R,13S,14S,17R)-17-acetyl-11-(4-((2-(4-((4-((((1S,9S)-9-ethyl-5-fluoro-9-hydroxy-4-methyl-10,13-dioxo-2,3,9,10,13,15-hexahydro-1H,12H-benzo[de]pyrano[3′,4′:6,7]indolizino[1,2-b]quinolin-1-yl)amino)methyl)piperidin-1-yl)methyl)piperidin-1-yl)-2-oxoethyl)(methyl)amino)phenyl)-13-methyl-3-oxo-2,3,6,7,8,11,12,13,14,15,16,17-dodecahydro-1H-cyclopenta[a]phenanthren-17-yl acetate], the IC50 (in assay [1]; in assay [2]; in the assay on 22Rv1 cells) was 10 to 100 nM in each case.

The IC50 is the concentration at which inhibition is half-maximal.

The values are drawn from patent publication US20260102501A1, “ANTI-CANCER NUCLEAR HORMONE RECEPTOR-TARGETING COMPOUNDS” (Nuvation Bio Inc., priority 2022, published 2026).
